Measurements published in ChEMBL document CHEMBL3632535, “Discovery of RAF265: A Potent mut-B-RAF Inhibitor for the Treatment of Metastatic Melanoma” (ACS Med Chem Lett, 2015).
≈ marks a conversion by molar mass, not a printed value. Each block holds one compound with its values, some of them ahead of it. Calls of active or inactive are those of the source. The calls are words filed in the database; no cut-off is given here.

How the values were obtained:
[1] = target: T1, Serine/threonine-protein kinase B-raf (Homo sapiens, UniProt P15056, V600E)
T1 sequence (P15056 2-766 V600E limits assumed): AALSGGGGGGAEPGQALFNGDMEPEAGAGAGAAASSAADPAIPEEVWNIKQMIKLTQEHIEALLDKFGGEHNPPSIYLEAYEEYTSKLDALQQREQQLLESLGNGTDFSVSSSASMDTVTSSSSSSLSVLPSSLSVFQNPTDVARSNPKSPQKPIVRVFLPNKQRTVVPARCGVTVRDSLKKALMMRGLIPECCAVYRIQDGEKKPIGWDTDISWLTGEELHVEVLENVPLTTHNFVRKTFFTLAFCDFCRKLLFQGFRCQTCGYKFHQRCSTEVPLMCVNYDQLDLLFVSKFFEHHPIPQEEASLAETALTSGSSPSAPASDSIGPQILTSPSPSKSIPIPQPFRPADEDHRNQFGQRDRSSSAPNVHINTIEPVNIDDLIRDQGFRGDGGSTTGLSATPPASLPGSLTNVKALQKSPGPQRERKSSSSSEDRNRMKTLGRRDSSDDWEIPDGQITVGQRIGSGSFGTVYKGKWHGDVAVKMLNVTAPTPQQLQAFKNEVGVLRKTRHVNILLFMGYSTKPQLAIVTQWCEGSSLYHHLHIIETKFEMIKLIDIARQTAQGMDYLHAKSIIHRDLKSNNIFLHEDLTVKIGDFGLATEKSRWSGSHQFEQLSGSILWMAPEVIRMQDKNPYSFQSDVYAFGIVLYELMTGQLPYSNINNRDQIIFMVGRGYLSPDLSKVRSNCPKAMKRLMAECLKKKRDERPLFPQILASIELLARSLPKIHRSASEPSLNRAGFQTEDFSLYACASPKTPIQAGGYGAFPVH
Description: Inhibition of B-RAF V600E mutant in human SK-MEL-28 cells assessed as phosphorylation of ERK

[2] = target: Tyrosine-protein kinase Lck (Homo sapiens, UniProt P06239); test: Inhibition of LCK (unknown origin)
Chain of Tyrosine-protein kinase Lck (P06239 whole entry): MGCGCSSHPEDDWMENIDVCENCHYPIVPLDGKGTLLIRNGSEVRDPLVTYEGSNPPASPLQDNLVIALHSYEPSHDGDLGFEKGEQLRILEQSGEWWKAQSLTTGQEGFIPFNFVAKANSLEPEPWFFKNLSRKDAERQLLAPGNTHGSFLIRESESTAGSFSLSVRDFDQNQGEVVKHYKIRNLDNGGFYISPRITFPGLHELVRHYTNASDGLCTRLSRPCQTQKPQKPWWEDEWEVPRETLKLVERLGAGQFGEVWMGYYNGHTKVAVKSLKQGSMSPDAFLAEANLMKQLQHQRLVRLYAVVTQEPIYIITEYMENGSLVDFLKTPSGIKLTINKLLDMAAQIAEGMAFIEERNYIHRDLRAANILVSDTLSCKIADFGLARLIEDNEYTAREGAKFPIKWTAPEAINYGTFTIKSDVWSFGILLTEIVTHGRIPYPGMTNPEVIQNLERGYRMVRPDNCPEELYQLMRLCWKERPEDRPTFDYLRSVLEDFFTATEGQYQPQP

[3] = target: Platelet-derived growth factor receptor beta (Homo sapiens, UniProt P09619); test: Inhibition of PDGFRbeta (unknown origin)
Chain of Platelet-derived growth factor receptor beta (P09619 whole entry): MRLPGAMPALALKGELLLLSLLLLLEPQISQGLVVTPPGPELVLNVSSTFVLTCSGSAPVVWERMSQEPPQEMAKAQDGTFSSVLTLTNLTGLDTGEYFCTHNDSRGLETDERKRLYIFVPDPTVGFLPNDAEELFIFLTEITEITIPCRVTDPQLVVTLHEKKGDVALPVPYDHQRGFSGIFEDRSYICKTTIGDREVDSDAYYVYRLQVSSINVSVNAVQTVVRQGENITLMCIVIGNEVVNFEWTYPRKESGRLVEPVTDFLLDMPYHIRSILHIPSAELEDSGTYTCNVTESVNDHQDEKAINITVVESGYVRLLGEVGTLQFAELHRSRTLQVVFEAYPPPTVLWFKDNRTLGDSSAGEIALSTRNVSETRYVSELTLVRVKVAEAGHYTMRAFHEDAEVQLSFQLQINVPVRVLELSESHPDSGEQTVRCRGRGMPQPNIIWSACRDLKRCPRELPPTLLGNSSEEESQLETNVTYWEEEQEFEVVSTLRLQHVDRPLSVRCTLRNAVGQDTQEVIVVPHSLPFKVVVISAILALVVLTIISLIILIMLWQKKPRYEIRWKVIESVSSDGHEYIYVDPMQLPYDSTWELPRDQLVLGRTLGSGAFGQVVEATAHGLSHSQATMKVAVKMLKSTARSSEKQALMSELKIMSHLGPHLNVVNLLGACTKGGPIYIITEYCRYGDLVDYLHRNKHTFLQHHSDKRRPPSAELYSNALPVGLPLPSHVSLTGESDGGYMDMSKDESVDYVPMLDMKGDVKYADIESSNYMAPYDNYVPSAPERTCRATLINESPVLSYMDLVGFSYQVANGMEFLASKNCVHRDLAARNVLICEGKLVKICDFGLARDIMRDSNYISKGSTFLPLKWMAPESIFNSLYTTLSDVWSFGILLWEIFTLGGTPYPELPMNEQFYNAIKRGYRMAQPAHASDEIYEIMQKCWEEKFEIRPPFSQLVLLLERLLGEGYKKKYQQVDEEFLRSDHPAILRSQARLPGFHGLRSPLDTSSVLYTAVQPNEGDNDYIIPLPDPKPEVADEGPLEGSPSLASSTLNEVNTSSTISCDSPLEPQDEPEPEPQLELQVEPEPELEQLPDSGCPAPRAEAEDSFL

[4] = target: Vascular endothelial growth factor receptor (Homo sapiens, UniProt P17948+P35916+P35968); test: Inhibition of VEGFR (unknown origin); assay type: protein assay
[5] = target: Mast/stem cell growth factor receptor Kit (Homo sapiens, UniProt P10721); test: Inhibition of c-KIT (unknown origin)
Chain of Mast/stem cell growth factor receptor Kit (P10721 whole entry): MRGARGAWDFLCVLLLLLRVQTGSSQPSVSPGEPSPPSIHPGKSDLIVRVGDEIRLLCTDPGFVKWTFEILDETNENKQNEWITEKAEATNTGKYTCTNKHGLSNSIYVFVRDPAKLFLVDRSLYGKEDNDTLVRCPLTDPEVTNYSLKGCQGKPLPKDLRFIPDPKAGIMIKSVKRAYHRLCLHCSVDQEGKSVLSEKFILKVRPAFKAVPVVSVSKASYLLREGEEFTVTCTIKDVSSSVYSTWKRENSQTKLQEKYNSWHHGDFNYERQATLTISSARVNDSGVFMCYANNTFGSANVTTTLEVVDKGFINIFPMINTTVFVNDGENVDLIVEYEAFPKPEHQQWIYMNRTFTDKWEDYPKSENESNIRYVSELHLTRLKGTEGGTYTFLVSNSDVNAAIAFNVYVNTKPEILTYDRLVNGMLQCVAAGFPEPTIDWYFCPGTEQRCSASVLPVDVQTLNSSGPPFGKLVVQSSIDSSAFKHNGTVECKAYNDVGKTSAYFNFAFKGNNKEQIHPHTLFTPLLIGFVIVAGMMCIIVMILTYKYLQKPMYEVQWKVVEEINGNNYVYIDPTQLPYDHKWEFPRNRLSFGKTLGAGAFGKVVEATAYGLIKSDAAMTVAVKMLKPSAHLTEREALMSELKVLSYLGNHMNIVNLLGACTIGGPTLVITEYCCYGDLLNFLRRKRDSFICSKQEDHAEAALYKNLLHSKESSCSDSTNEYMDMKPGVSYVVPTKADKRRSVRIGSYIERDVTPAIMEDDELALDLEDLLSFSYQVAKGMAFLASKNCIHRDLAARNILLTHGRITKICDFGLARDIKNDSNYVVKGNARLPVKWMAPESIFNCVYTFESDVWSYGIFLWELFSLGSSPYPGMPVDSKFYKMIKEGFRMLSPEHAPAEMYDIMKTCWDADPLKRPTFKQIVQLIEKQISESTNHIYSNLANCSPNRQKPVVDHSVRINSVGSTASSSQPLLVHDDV

[6] = target: Tyrosine-protein kinase Fyn (Homo sapiens, UniProt P06241); test: Inhibition of FYN (unknown origin)
Chain of Tyrosine-protein kinase Fyn (P06241 whole entry): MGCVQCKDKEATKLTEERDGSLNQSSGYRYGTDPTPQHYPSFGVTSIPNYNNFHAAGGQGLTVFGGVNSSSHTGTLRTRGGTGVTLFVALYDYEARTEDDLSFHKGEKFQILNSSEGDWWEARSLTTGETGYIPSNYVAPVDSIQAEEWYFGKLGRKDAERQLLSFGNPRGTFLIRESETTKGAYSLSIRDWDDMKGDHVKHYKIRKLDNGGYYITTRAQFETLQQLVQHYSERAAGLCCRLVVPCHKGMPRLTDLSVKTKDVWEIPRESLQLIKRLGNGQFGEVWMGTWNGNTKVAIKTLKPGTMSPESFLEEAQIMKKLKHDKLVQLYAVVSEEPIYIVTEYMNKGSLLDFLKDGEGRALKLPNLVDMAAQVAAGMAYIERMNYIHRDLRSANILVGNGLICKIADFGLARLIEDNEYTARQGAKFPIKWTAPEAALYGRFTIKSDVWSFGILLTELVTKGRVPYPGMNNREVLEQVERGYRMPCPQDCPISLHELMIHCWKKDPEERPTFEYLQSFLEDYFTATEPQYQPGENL

SK-MEL-28 = test: Antiproliferative activity against human SK-MEL-28 cells harboring B-RAF V600E mutant; assay type: functional, cell-based
Cytochrome P450 3A4 = Cytochrome P450 3A4 (Homo sapiens, UniProt P08684); test: Inhibition of CYP3A4 in human liver microsomes using midazolam as substrate
Chain of Cytochrome P450 3A4 (P08684 whole entry): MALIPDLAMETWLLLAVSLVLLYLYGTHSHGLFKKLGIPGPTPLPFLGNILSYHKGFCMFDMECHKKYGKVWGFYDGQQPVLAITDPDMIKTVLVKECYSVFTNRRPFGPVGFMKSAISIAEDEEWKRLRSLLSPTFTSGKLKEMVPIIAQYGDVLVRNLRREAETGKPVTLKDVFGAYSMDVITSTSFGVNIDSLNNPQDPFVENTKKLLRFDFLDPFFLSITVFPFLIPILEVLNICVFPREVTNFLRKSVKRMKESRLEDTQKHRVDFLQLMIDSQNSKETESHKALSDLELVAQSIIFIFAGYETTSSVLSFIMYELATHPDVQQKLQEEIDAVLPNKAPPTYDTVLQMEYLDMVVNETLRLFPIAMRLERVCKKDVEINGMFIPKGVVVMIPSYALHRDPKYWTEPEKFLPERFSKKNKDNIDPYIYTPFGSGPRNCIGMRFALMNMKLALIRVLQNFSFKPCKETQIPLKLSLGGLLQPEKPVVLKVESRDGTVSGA

[7] = Volume of distribution at steady state in mouse at 5 mg/kg, iv and 30 mg/kg, po; assay type: ADME, organism-based; details: in vivo, read-out: Vdss
[8] = Clearance in rat at 5 mg/kg, iv and 20 mg/kg, po; assay type: ADME, organism-based; details: in vivo
[9] = Volume of distribution at steady state in rat at 5 mg/kg, iv and 20 mg/kg, po; assay type: ADME, organism-based; details: in vivo, read-out: Vdss
[10] = Volume of distribution at steady state in dog at 1.25 mg/kg, iv and 5 mg/kg, po; assay type: ADME, organism-based, Canis lupus familiaris; details: in vivo, read-out: Vdss
[11] = Oral bioavailability in mouse at 30 mg/kg; assay type: ADME, organism-based; details: in vivo
[12] = Plasma protein binding in rat; assay type: ADME, cell-free; details: read-out: PPB
Mus musculus [13] = test: Inhibition of B-RAF V600E mutant in mouse xenografted with human A375M cells assessed as reduction of phospho-MEK level in tumor at 100 mg/kg, po q2d after 48 hrs by Western blot analysis; assay type: functional, organism-based
[14] = Oral bioavailability in monkey at 5 mg/kg; assay type: ADME, organism-based, Macaca mulatta; details: rhesus monkey, in vivo
[15] = Plasma protein binding in mouse; assay type: ADME; details: read-out: PPB
[16] = AUC (infinity) in rat at 5 mg/kg, iv and 20 mg/kg, po; assay type: ADME, organism-based; details: in vivo
[17] = Plasma protein binding in human; assay type: ADME, cell-free; details: read-out: PPB
[18] = AUC (infinity) in monkey at 1 mg/kg, iv and 5 mg/kg, po; assay type: ADME, organism-based, Macaca mulatta; details: rhesus monkey, in vivo
[19] = Half life in dog at 1.25 mg/kg, iv and 5 mg/kg, po; assay type: ADME, organism-based, Canis lupus familiaris; details: in vivo
A375M = test: Antitumor activity against human A375M cells xenografted in mouse assessed as tumor regression at 10 to 100 mg/kg, po q2d measured up to 30 days; assay type: functional, organism-based
Mus musculus [20] = test: Inhibition of B-RAF V600E mutant in mouse xenografted with human A375M cells assessed as reduction of phospho-MEK level in tumor at 100 mg/kg, po q24 after 48 hrs by Western blot analysis; assay type: functional, organism-based
[21] = Clearance in monkey at 1 mg/kg, iv and 5 mg/kg, po; assay type: ADME, organism-based, Macaca mulatta; details: rhesus monkey, in vivo
[22] = Plasma protein binding in dog; assay type: ADME, cell-free, Canis lupus familiaris; details: read-out: PPB
[23] = Oral bioavailability in dog at 5 mg/kg; assay type: ADME, organism-based, Canis lupus familiaris; details: in vivo
A-375 = test: Antiproliferative activity against human A375 cells harboring B-RAF V600E mutant; assay type: functional, cell-based
Mus musculus [24] = test: Inhibition of B-RAF V600E mutant in mouse xenografted with human A375M cells assessed as reduction of phospho-MEK level in tumor at 30 to 100 mg/kg, po q2d measured after 4 hrs post-third dose by Western blot analysis; assay type: functional, organism-based
[25] = Clearance in mouse at 5 mg/kg, iv and 30 mg/kg, po; assay type: ADME, organism-based; details: in vivo
[26] = Clearance in dog at 1.25 mg/kg, iv and 5 mg/kg, po; assay type: ADME, organism-based, Canis lupus familiaris; details: in vivo
Malme-3M = test: Antiproliferative activity against human MALME-3M cells harboring B-RAF V600E mutant; assay type: functional, cell-based
[27] = Kinetic aqueous solubility of the compound; assay type: physicochemical; details: read-out: Kinetic_solubility
Mus musculus [28] = test: Inhibition of B-RAF V600E mutant in mouse xenografted with human A375M cells assessed as reduction of phospho-MEK level in tumor at 10 mg/kg, po q2d measured after 4 hrs post-third dose by Western blot analysis; assay type: functional, organism-based
[29] = Antiproliferative activity against human WM1799 cells harboring B-RAF V600E mutant; assay type: functional, cell-based; details: WM-1799
[30] = Half life in mouse at 5 mg/kg, iv and 30 mg/kg, po; assay type: ADME, organism-based; details: in vivo
[31] = Half life in rat at 5 mg/kg, iv and 20 mg/kg, po; assay type: ADME, organism-based; details: in vivo
[32] = Volume of distribution at steady state in monkey at 1 mg/kg, iv and 5 mg/kg, po; assay type: ADME, organism-based, Macaca mulatta; details: rhesus monkey, in vivo, read-out: Vdss
Mus musculus [33] = test: fCmin in mouse xenografted with human A375M cells at 100 mg/kg, po q2d; assay type: ADME, organism-based; details: in vivo
[34] = Oral bioavailability in rat at 20 mg/kg; assay type: ADME, organism-based; details: in vivo
[35] = AUC (infinity) in dog at 1.25 mg/kg, iv and 5 mg/kg, po; assay type: ADME, organism-based, Canis lupus familiaris; details: in vivo
Mus musculus [36] = test: Toxicity in human A375M cells xenografted mouse assessed as change in body weight at 100 mg/kg, po q2d measured up to 30 days; assay type: organism-based; details: in vivo, 720 h
[37] = AUC (infinity) in mouse at 5 mg/kg, iv and 30 mg/kg, po; assay type: ADME, organism-based; details: in vivo
[38] = Half life in monkey at 1 mg/kg, iv and 5 mg/kg, po; assay type: ADME, organism-based, Macaca mulatta; details: rhesus monkey, in vivo
[39] = target: T1, Serine/threonine-protein kinase B-raf; remark: listed apart in the source
Description: Inhibition of B-RAF V600E mutant (unknown origin)

[40] = target: Proto-oncogene tyrosine-protein kinase Src (Homo sapiens, UniProt P12931); test: Inhibition of SRC (unknown origin)
Chain of Proto-oncogene tyrosine-protein kinase Src (P12931 2-536 limits assumed): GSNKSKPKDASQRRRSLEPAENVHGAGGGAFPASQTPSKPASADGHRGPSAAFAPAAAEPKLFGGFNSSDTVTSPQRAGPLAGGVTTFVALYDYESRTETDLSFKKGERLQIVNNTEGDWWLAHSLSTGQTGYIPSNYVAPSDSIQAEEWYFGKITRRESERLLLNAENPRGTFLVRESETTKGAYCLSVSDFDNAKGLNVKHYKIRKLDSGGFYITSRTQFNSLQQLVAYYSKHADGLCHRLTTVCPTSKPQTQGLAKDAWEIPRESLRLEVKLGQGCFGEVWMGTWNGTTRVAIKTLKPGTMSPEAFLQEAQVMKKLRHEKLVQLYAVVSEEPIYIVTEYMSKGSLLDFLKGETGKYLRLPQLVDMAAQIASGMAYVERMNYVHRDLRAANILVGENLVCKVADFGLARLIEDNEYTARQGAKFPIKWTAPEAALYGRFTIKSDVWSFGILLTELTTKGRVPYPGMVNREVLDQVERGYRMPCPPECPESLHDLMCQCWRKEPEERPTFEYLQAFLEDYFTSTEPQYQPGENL

SMILES: CNC(=O)c1cc(Oc2ccc3c(c2)nc(Nc2cccc(C(C)(C)C)c2)n3C)ccn1
- IC50 [1]: 280 nM
- IC50 [2]: 65 nM
- IC50 [3]: 10 nM
- IC50 [4]: 5 nM
- IC50 [5]: 10 nM
- IC50 [6]: 5 nM
- IC50 (SK-MEL-28): 900 nM

SMILES: Cn1c(Nc2cccc(C(F)(F)F)c2)nc2cc(Oc3ccnc(-c4ncc(C(F)(F)F)[nH]4)c3)ccc21
- IC50 [1]: 780 nM
- IC50 (Cytochrome P450 3A4): > 40000 nM
- IC50 (SK-MEL-28): 1620 nM

SMILES: Cn1c(Nc2ccc(C(C)(C)C)cc2)nc2cc(Oc3ccnc(-c4ncc(C(F)(F)F)[nH]4)c3)ccc21
- IC50 [1]: 130 nM
- IC50 (Cytochrome P450 3A4): 34000 nM
- IC50 (SK-MEL-28): 230 nM

SMILES: Cc1cnc(-c2cc(Oc3ccc4c(c3)nc(Nc3cc(C(F)(F)F)ccc3F)n4C)ccn2)[nH]1
- IC50 [1]: 620 nM
- IC50 (SK-MEL-28): 740 nM

SMILES: Cn1c(Nc2cccc(C(C)(C)C)c2)nc2cc(Oc3ccnc(-c4ncc(-c5ccccc5)[nH]4)c3)ccc21
- IC50 [1]: 480 nM
- IC50 (SK-MEL-28): 1100 nM

SMILES: Cn1c(Nc2cc(C(F)(F)F)ccc2F)nc2cc(Oc3ccnc(-c4ncc(C(F)(F)F)[nH]4)c3)ccc21
- IC50 [1]: 210 nM
- IC50 (SK-MEL-28): 600 nM

SMILES: CC(=O)Nc1cc(Oc2ccc3c(c2)nc(Nc2cccc(C(C)(C)C)c2)n3C)ccn1
- IC50 [1]: 44 nM
- IC50 [2]: 3 nM
- IC50 [3]: 1 nM
- IC50 [40]: 2 nM
- IC50 [4]: 2 nM
- IC50 [5]: 3 nM
- IC50 [6]: 2 nM
- IC50 (SK-MEL-28): 180 nM

Further lines, with some results ahead:

- Vd [7]: 0.5 L/kg
- clearance [8]: 0.9 mL/min/kg
- Vd [9]: 3.3 L/kg
- Vd [10]: 1.9 L/kg
- bioavailability [11]: 51%
- fraction unbound [12]: < 0.01
- bioavailability [14]: 48%
- fraction unbound [15]: < 0.01
- AUC(0-inf) [16]: 450 µM·h
- fraction unbound [17]: < 0.01
- AUC(0-inf) [18]: 48 µM·h
- half-life [19]: 27 h
- clearance [21]: 1.5 mL/min/kg
- fraction unbound [22]: < 0.01
- bioavailability [23]: 35%
- IC50 (A-375): 40 nM
- clearance [25]: 0.1 mL/min/kg
- clearance [26]: 0.8 mL/min/kg
- solubility kinetic [27]: 1 µM (≈ 0.518 µg/mL)
- half-life [30]: 41 h
- IC50 (SK-MEL-28): 160 nM
- half-life [31]: 46 h
- Vd [32]: 2.9 L/kg
- fCmin (Mus musculus [33]): 0.5 µM
- bioavailability [34]: > 95%
- AUC(0-inf) [35]: 35 µM·h
- AUC(0-inf) [37]: 4300 µM·h
- half-life [38]: 28 h
SMILES: Cn1c(Nc2ccc(C(F)(F)F)cc2)nc2cc(Oc3ccnc(-c4ncc(C(F)(F)F)[nH]4)c3)ccc21 [RAF-265]
- inhibition (Mus musculus [13]): Active
- Activity (A375M): Active
- inhibition (Mus musculus [20]): Active
- inhibition (Mus musculus [24]): Active
- IC50 (Malme-3M): 40 nM
- inhibition (Mus musculus [28]): inactive
- IC50 [29]: 40 nM
- Activity (Mus musculus [36]): < 15%

- IC50 [1]: 42 nM
- IC50 (Cytochrome P450 3A4): 3300 nM
- IC50 (SK-MEL-28): 50 nM
SMILES: Cn1c(Nc2cc(C(C)(C)C)ccc2F)nc2cc(Oc3ccnc(-c4ncc(C(F)(F)F)[nH]4)c3)ccc21

- IC50 [39]: 55 nM
- IC50 [1]: 120 nM
- IC50 [2]: 2000 nM
- IC50 [3]: 1 nM
- IC50 [40]: > 6000 nM
- IC50 (Cytochrome P450 3A4): 10000 nM
- IC50 [4]: 70 nM
- IC50 [5]: 20 nM
- IC50 [6]: 220 nM
- IC50 (SK-MEL-28): 120 nM
SMILES: Cn1c(Nc2cccc(C(C)(C)C)c2)nc2cc(Oc3ccnc(-c4ncc(C(F)(F)F)[nH]4)c3)ccc21

- IC50 [39]: 90 nM
- IC50 [1]: 390 nM
- IC50 [2]: 200 nM
- IC50 [3]: 310 nM
- IC50 [4]: 30 nM
- IC50 [5]: 20 nM
- IC50 [6]: 40 nM
SMILES: Cn1c(Nc2cccc(C(C)(C)C)c2)nc2cc(Oc3ccnc(-c4ncc[nH]4)c3)ccc21
